Laboratory results: patent publication US9365540B2, “Benzimidazole derivatives as MCH receptor antagonists” (Takeda Pharmaceutical Company Limited, priority 2012, dated 2016)

Tests used:
HERG = biological target: T1, HERG (Homo sapiens, UniProt Q12809); experiment: HERG inhibitory activity, whole-cell patch clamp; assay type: cell-based; conditions: 10 μM test compound; HERG.T.HEK cells; peak tail current
T1 construct: host or cells: HERG.T.HEK (HEK cells, G418 selection)
From the text: Evaluation of HERG Inhibitory Activity
MEM medium, MEM nonessential amino acid solution, sodium pyruvate solution and G418 sulfate solution (Geneticin) were purchased from Invitrogen Corporation (Carlsbad, Calif.). Bovine serum albumin (BSA, Fatty Acid Free) was a product of Wako Pure Chemical Industries, Ltd. (Osaka, Japan). Fetal calf serum (FCS) was a product of Trau Scientific Ltd. (Melbourne, Australia).
As HERG-expressing cell HERG.T.HEK, the cell obtained from Wisconsin ALUMNI Research Foundation was used. HERG.T.HEK was maintained and passaged at 37° C. in the presence of 5% CO2 using an MEM medium containing 10% FCS, 1 mM MEM nonessential amino acid, 1 mM sodium pyruvate and 500 μg/ml Geneticin.
80-90% confluent cells were collected by a trypsin treatment and plated on an IVF dish (Falcon, Franklin Lakes, N.J.). […] A preliminary stimulation was applied and the HERG electric current value (peak tail current) was measured when the electric current waveform was stabilized.
For measurement of the HERG electric current with addition of the test compound, the cells were first perfused with the extracellular fluid and, when the waveform was stabilized, the cells were perfused with an extracellular fluid containing 10 μM of a test compound. When the electric current waveform was stabilized under respective perfuse conditions, the HERG electric current was measured.
The HERG electric current inhibitory rate (%) of the test compound was calculated with the HERG electric current value without addition of the test compound as 100%.

human MCHR1 = biological target: T2, human MCHR1 (Homo sapiens, UniProt Q99705); experiment: MCH receptor 1 antagonistic activity, Ca2+ mobilization assay; assay type: cell-based; conditions: CHO, test compound 0.1 μM; human MCHR1-expressing CHO cells (clone #4); ligand MCH(4-19) 2 nM; read-out: Inhibitory rate % (0.1 μM)
T2 construct: expressed in transfected cells; host or cells: CHO dhfr- cells, clone #4
How it was run: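 CHO dhfr− cells stably expressing human MCHR1 (clone #4) were used in a fluorometric Ca2+ mobilization assay. Test compounds were run at 0.1 μM, with antagonism expressed as percent inhibition.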

T1 sequence (Q12809 whole entry): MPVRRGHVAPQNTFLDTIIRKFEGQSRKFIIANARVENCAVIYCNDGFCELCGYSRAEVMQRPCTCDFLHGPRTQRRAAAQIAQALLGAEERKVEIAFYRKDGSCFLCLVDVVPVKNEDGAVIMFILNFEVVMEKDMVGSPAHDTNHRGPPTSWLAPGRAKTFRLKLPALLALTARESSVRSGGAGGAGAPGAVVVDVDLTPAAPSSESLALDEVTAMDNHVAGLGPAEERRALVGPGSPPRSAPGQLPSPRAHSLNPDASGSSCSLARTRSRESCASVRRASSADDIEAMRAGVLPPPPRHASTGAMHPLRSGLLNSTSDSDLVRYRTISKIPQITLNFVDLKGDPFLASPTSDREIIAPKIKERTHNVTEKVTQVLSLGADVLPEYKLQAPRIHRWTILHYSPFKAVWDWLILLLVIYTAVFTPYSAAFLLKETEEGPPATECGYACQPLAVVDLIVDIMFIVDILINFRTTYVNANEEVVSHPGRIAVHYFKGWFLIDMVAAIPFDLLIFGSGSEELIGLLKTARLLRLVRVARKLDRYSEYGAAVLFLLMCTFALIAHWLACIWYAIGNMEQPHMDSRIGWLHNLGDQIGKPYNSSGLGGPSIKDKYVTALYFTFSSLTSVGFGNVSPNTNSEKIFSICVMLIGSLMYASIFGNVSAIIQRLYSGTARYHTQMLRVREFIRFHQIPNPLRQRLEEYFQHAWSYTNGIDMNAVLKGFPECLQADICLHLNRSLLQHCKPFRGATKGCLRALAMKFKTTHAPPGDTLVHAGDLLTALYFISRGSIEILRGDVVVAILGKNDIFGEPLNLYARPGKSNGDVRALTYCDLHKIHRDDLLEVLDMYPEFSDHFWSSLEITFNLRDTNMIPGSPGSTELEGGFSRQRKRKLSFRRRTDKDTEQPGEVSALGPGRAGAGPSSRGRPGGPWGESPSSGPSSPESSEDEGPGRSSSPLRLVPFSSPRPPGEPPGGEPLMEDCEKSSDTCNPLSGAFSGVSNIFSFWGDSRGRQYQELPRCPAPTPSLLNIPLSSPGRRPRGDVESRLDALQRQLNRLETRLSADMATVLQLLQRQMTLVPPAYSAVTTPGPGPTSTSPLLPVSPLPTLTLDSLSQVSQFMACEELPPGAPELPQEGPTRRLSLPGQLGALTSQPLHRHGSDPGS
T2 sequence (Q99705 whole entry): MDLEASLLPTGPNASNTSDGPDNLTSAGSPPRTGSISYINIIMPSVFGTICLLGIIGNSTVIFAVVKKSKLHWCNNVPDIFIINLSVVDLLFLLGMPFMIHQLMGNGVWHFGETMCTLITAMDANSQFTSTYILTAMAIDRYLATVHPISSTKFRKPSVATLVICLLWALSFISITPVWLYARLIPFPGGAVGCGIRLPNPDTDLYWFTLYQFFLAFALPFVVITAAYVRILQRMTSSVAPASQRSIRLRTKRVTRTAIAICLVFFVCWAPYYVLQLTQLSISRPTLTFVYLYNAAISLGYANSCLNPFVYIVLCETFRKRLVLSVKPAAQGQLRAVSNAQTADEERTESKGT

inhibition at 0.1 µM (human MCHR1) [%] | Compound | HERG inhibitory action (%) (HERG)
99 | Cn1c(C2CC2)nc2ccc(-n3ccc(OCc4ccc(F)cc4)cc3=O)cc21 [Example 2, 1-(2-Cyclopropyl-1-methyl-1H-benzimidazol-6-yl)-4-((4-fluorobenzyl)oxy)pyridin-2(1H)-one] | 27.3
100 | CCc1nc2ccc(-n3ccc(OCc4ccc(F)cc4)cc3=O)cc2n1C [Example 63, 1-(2-Ethyl-1-methyl-1H-benzimidazol-6-yl)-4-((4-fluorobenzyl)oxy)pyridin-2(1H)-one] | 23.0
95 | Cc1nc2ccc(-n3ccc(OCc4ccc(F)cc4)cc3=O)cc2n1C [Example 254, 1-(1,2-Dimethyl-1H-benzimidazol-6-yl)-4-((4-fluorobenzyl)oxy)pyridin-2(1H)-one] | 26.4
